We go through 22 molecules from patent US11180474B2 (BRISTOL-MYERS SQUIBB COMPANY, priority 2016, dated 2021).

pIC50: −log10 of the molar value.

The target of this test is T1, human TLR7 (Homo sapiens, UniProt Q9NYK1).
T1 construct: host or cells: HEK-Blue cells
T1 sequence (Q9NYK1 27-1049): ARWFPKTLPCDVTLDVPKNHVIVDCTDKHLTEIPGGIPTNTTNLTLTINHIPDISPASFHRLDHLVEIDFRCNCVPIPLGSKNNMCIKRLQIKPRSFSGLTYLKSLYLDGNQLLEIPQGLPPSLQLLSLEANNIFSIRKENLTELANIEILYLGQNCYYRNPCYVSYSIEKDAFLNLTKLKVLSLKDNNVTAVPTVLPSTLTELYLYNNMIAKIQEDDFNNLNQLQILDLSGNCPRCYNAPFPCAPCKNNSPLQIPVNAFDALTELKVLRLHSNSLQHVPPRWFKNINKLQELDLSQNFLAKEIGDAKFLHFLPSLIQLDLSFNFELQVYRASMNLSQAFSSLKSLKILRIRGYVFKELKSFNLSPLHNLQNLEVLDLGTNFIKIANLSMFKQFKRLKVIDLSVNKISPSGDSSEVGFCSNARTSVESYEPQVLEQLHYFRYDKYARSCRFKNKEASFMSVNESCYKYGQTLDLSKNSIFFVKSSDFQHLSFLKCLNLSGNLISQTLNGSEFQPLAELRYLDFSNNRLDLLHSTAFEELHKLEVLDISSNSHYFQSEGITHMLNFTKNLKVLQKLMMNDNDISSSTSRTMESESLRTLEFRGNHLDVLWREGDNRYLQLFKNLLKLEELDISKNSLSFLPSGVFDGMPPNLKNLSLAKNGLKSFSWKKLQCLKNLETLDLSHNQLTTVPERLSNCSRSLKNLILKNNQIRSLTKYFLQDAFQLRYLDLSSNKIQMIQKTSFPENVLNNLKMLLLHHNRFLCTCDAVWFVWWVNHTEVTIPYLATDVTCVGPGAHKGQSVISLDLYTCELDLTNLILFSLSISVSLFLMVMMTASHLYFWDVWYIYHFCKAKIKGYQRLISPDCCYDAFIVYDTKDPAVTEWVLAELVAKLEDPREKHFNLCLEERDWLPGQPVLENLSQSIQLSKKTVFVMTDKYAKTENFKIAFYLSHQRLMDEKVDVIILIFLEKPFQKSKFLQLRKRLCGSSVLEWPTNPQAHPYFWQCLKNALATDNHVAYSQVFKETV
Put plainly: TLR7 inhibition reporter assay (HEK-Blue cells, SEAP reporter, gardiquimod stimulation). It is filed as cell-based. The settings on record: HEK-Blue cells overexpressing human TLR7, gardiquimod 7.5 μM. In outline: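 HEK-Blue reporter cells (15,000/well TLR7, 20,000 TLR8) exposed to compound over 0.05 nM–50 μM, agonist-stimulated (R848 for TLR8, gardiquimod for TLR7), 22 h at 37 °C, 5% CO2. SEAP read with HEK-Blue Detection; % inhibition relative to agonist-plus-DMSO and known-inhibitor controls.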
One may read the pIC50 as the IC50 on a negative log10 scale, so that one unit is a factor of ten. Low values mean a large IC50, high ones a small IC50. Molecule `COc1ccc(-c2[nH]c3ccc(C4CCN(CC(=O)NC5CCN(C(C)C)CC5)CC4)cc3c2C(C)C)cc1OC` [Example 273, 2-(4-(2-(3,4-dimethoxyphenyl)-3-isopropyl-1H-indol-5-yl)piperidin-1-yl)-N-(1-isopropylpiperidin-4-yl)acetamide] gave a pIC50 of 8.15.

`COc1ccc(-c2[nH]c3ccc(C4CCN(C(=O)CN5CCC[C@H](C(=O)NC(C)C)C5)CC4)cc3c2C(C)C)cc1OC` [Example 285, (S)-1-(2-(4-(2-(3,4-dimethoxyphenyl)-3-isopropyl-1H-indol-5-yl)piperidin-1-yl)-2-oxoethyl)-N-isopropylpiperidine-3-carboxamide] showed a pIC50 of 7.26.

Take `COc1ccc(-c2[nH]c3ccc(C4CCN(C(=O)CN5CCC[C@@H](C(=O)N6CCC(CCO)CC6)C5)CC4)cc3c2C(C)C)cc1OC` [Example 306, (R)-1-(4-(2-(3,4-dimethoxyphenyl)-3-isopropyl-1H-indol-5-yl)piperidin-1-yl)-2-(3-(4-(2-hydroxyethyl)piperidine-1-carbonyl)piperidin-1-yl)ethan-1-one]: the pIC50 was 6.82.

As for `COc1ccc(-c2[nH]c3ccc(C4CCN(C(=O)CN[C@H]5CC[C@H](N)CC5)CC4)cc3c2C(C)C)cc1OC` [Example 232, 2-(((1r,4r)-4-aminocyclohexyl)amino)-1-(4-(2-(3,4-dimethoxyphenyl)-3-isopropyl-1H-indol-5-yl)piperidin-1-yl)ethan-1-one], the pIC50 was 6.92.

`COc1ccc(-c2[nH]c3ccc(C4CCN(C(=O)CNC5CCCC5O)CC4)cc3c2C(C)C)cc1OC` (stereo not shown) [Example 236, 1-(4-(2-(3,4-dimethoxyphenyl)-3-isopropyl-1H-indol-5-yl)piperidin-1-yl)-2-((2-hydroxycyclopentyl)amino)ethan-1-one] gave a pIC50 of 7.54.

For `CCN(CC)C(=O)C1CCCN(CC(=O)N2CCC(c3ccc4[nH]c(-c5ccc(OC)c(OC)c5)c(C(C)C)c4c3)CC2)C1` (stereo not shown) [Example 248, 1-(2-(4-(2-(3,4-dimethoxyphenyl)-3-isopropyl-1H-indol-5-yl)piperidin-1-yl)-2-oxoethyl)-N,N-diethylpiperidine-3-carboxamide], the pIC50 is 7.48.

`COc1ccc(-c2[nH]c3ccc(C4CCN(C(=O)CN5CCC(CO)CC5)CC4)cc3c2C(C)C)cc1OC` [Example 243, 1-(4-(2-(3,4-dimethoxyphenyl)-3-isopropyl-1H-indol-5-yl)piperidin-1-yl)-2-(4-(hydroxymethyl)piperidin-1-yl)ethan-1-one] showed a pIC50 of 7.26.

The molecule `COc1ccc(-c2[nH]c3ccc(C4CCN(C(=O)CN5CCC[C@@H](C(=O)N6CCCC6)C5)CC4)cc3c2C(C)C)cc1OC` [Example 303, (R)-1-(4-(2-(3,4-dimethoxyphenyl)-3-isopropyl-1H-indol-5-yl)piperidin-1-yl)-2-(3-(pyrrolidine-1-carbonyl)piperidin-1-yl)ethan-1-one] gave a pIC50 of 7.52.

Turning to `COc1ccc(-c2[nH]c3ccc(C4CCN(C(=O)CN5CCOCC5)CC4)cc3c2C(C)C)cc1OC` [Example 223, 1-(4-(2-(3,4-dimethoxyphenyl)-3-isopropyl-1H-indol-5-yl)piperidin-1-yl)-2-morpholinoethan-1-one], the pIC50 was 7.32.

As for `COc1ccc(-c2[nH]c3ccc(C4CCN(C(=O)CN(C)CCO)CC4)cc3c2C(C)C)cc1OC` [Example 242, 1-(4-(2-(3,4-dimethoxyphenyl)-3-isopropyl-1H-indol-5-yl)piperidin-1-yl)-2-((2-hydroxyethyl)(methyl)amino)ethan-1-one], the pIC50 is 7.64.

Consider `COc1ccc(-c2[nH]c3ccc(C4CCN(C(=O)CN5CCC[C@@H](C(=O)N6C(C)CCC6C)C5)CC4)cc3c2C(C)C)cc1OC` (stereo partly drawn) [Example 311, 1-(4-(2-(3,4-dimethoxyphenyl)-3-isopropyl-1H-indol-5-yl)piperidin-1-yl)-2-((3R)-3-(2,5-dimethylpyrrolidine-1-carbonyl)piperidin-1-yl)ethan-1-one], for which the pIC50 was 6.83. This pIC50 lies 0.81 log units lower than the previous one.

Take `COc1ccc(-c2[nH]c3ccc(C4CCN(C(=O)CN5CCC[C@H](C(=O)N6CCN(Cc7ccc(Br)cc7)CC6)C5)CC4)cc3c2C(C)C)cc1OC` [Example 294, (S)-2-(3-(4-(4-bromobenzyl)piperazine-1-carbonyl)piperidin-1-yl)-1-(4-(2-(3,4-dimethoxyphenyl)-3-isopropyl-1H-indol-5-yl)piperidin-1-yl)ethan-1-one]: the pIC50 was 5.92.

Consider `COc1ccc(-c2[nH]c3ccc(C4CCN(C(=O)CN5CCCC(C(=O)NC6CCN(C(C)C)CC6)C5)CC4)cc3c2C(C)C)cc1OC` (single isomer, unassigned) [Example 281, 1-(2-(4-(2-(3,4-dimethoxyphenyl)-3-isopropyl-1H-indol-5-yl)piperidin-1-yl)-2-oxoethyl)-N-(1-isopropylpiperidin-4-yl)piperidine-3-carboxamide], for which the pIC50 was 7.77.

On to `COc1ccc(-c2[nH]c3ccc(C4CCN(C(=O)CN5CCC[C@H](C(=O)N6CCN(C(C)C)CC6)C5)CC4)cc3c2C(C)C)cc1OC` [Example 286, (S)-1-(4-(2-(3,4-dimethoxyphenyl)-3-isopropyl-1H-indol-5-yl)piperidin-1-yl)-2-(3-(4-isopropylpiperazine-1-carbonyl)piperidin-1-yl)ethan-1-one], for which the pIC50 was 8.30.

The molecule `COc1ccc(-c2[nH]c3ccc(C4CCN(C(=O)CN5CCC[C@@H](C(=O)NCC(N)=O)C5)CC4)cc3c2C(C)C)cc1OC` [Example 309, (R)—N-(2-amino-2-oxoethyl)-1-(2-(4-(2-(3,4-dimethoxyphenyl)-3-isopropyl-1H-indol-5-yl)piperidin-1-yl)-2-oxoethyl)piperidine-3-carboxamide] had a pIC50 of 7.51.

Molecule `COc1ccc(-c2[nH]c3ccc(C4CCN(C(=O)CN5CCC(N(C)C)CC5)CC4)cc3c2C(C)C)cc1OC` [Example 244, 1-(4-(2-(3,4-dimethoxyphenyl)-3-isopropyl-1H-indol-5-yl)piperidin-1-yl)-2-(4-(dimethylamino)piperidin-1-yl)ethan-1-one] gave a pIC50 of 8.22.

Consider `COc1ccc(-c2[nH]c3ccc(C4CCN(C(=O)CN5CCC[C@H](C(=O)N6CC[C@H](O)C6)C5)CC4)cc3c2C(C)C)cc1OC` [Example 301, 1-(4-(2-(3,4-dimethoxyphenyl)-3-isopropyl-1H-indol-5-yl)piperidin-1-yl)-2-((S)-3-((S)-3-hydroxypyrrolidine-1-carbonyl)piperidin-1-yl)ethan-1-one], for which the pIC50 was 7.18.

For `COc1ccc(-c2[nH]c3ccc(C4CCN(C(=O)CN5CCC[C@H](C(=O)N6CCN(CCN7CCCC7)CC6)C5)CC4)cc3c2C(C)C)cc1OC` [Example 293, (S)-1-(4-(2-(3,4-dimethoxyphenyl)-3-isopropyl-1H-indol-5-yl)piperidin-1-yl)-2-(3-(4-(2-(pyrrolidin-1-yl)ethyl)piperazine-1-carbonyl)piperidin-1-yl)ethan-1-one], the pIC50 is 7.55. Against the preceding molecule, the pIC50 is 0.37 log units higher.

In the case of `CCN(CC)C(=O)C1CCCN(CC(=O)N2CCC(c3ccc4[nH]c(-c5ccc(OC)c(OC)c5)c(C(C)C)c4c3)CC2)C1` (stereo not shown) [Example 247, 1-(2-(4-(2-(3,4-dimethoxyphenyl)-3-isopropyl-1H-indol-5-yl)piperidin-1-yl)-2-oxoethyl)-N,N-diethylpiperidine-3-carboxamide], the pIC50 is 7.40.

Turning to `COc1ccc(-c2[nH]c3ccc(C4CCN(C(=O)CN5CCC[C@H](C(=O)N6CCC(N(C)C)CC6)C5)CC4)cc3c2C(C)C)cc1OC` [Example 289, (S)-1-(4-(2-(3,4-dimethoxyphenyl)-3-isopropyl-1H-indol-5-yl)piperidin-1-yl)-2-(3-(4-(dimethylamino)piperidine-1-carbonyl)piperidin-1-yl)ethan-1-one], the pIC50 is 7.89.

Molecule `COc1ccc(-c2[nH]c3ccc(C4CCN(CC(=O)N[C@H]5CC[C@H](C(C)(C)O)CC5)CC4)cc3c2C(C)C)cc1OC` [Example 279, 2-(4-(2-(3,4-dimethoxyphenyl)-3-isopropyl-1H-indol-5-yl)piperidin-1-yl)-N-((1r,4r)-4-(2-hydroxypropan-2-yl)cyclohexyl)acetamide] had a negative logarithm of the IC50 (pIC50) of 6.31. This pIC50 lies 1.58 log units lower than the previous one.

The molecule `COc1ccc(-c2[nH]c3ccc(C4CCN(C(=O)CN5CCCN(C)CC5)CC4)cc3c2C(C)C)cc1OC` [Example 239, 1-(4-(2-(3,4-dimethoxyphenyl)-3-isopropyl-1H-indol-5-yl)piperidin-1-yl)-2-(4-methyl-1,4-diazepan-1-yl)ethan-1-one] gave a pIC50 of 7.96. This pIC50 is 1.65 log units higher than that of the molecule before.
